How the values were obtained:
LmPC-PLC [1] = target: T1, LmPC-PLC (Listeria monocytogenes serovar 1/2a, UniProt P33378); test: biochemical; format: biochemical; conditions: for Activity of LmPC-PLC towards 4-NPPC (slope): 50 μM ZnSO4; for relative activity of LmPC-PLC WT on 4-NPPC (compared to uninhibited activity): Fig. 4g
LmPC-PLC [2] = target: T1, LmPC-PLC; format: biochemical; conditions: 100% POPC MLVs […], 20 mM MES pH 6.5, 150 mM NaCl, 50 μM ZnSO4, 37 °C, replicate 1
[3] = target: broad-range phospholipase C from Listeria monocytogenes (LmPC-PLC), wild type, mature form (Listeria monocytogenes) (UniProt P33378)

T1 sequence (P33378 52-289 limits assumed): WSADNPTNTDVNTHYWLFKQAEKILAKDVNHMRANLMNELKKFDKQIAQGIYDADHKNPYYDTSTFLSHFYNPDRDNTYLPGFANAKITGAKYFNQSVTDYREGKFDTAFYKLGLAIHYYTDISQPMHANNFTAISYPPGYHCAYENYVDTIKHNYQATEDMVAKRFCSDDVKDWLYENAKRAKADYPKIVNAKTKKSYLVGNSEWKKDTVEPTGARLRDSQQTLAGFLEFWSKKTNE
Sequence of broad-range phospholipase C from Listeria monocytogenes (LmPC-PLC), wild type, mature form (P33378 52-289): as the sequence (P33378 52-289 limits assumed) above

## c1ccc(CN(CCN(Cc2ccccn2)Cc2ccccn2)Cc2ccccn2)nc1 [TPEN, N,N,N′,N′-tetrakis(2-pyridinylmethyl)−1,2-ethanediamine]
LmPC-PLC [1]; LmPC-PLC 500 nM, 4-NPPC 1 mM, pH 6.5, 50 μM ZnSO4, Supplementary Fig. 10
  inhibition of LmPC-PLC compared with O-phe: even stronger inhibition
LmPC-PLC [1]; inhibitor 2 uM, LmPC-PLC 500 nM, 4-NPPC 1 mM, 20 mM MES pH 6.5, 150 mM NaCl, replicate 1 of N=3
  Activity of LmPC-PLC towards 4-NPPC (slope): 0.0004788 abs/min
LmPC-PLC [1]; inhibitor 2 uM, LmPC-PLC 500 nM, 4-NPPC 1 mM, 20 mM MES pH 6.5, 150 mM NaCl, replicate 2 of N=3
  Activity of LmPC-PLC towards 4-NPPC (slope): 0.0004923 abs/min
LmPC-PLC [1]; inhibitor 2 uM, LmPC-PLC 500 nM, 4-NPPC 1 mM, 20 mM MES pH 6.5, 150 mM NaCl, replicate 3 of N=3
  Activity of LmPC-PLC towards 4-NPPC (slope): 0.0004163 abs/min
LmPC-PLC [1]; inhibitor 4 uM, LmPC-PLC 500 nM, 4-NPPC 1 mM, 20 mM MES pH 6.5, 150 mM NaCl, replicate 1 of N=3
  Activity of LmPC-PLC towards 4-NPPC (slope): 0.0004484 abs/min
LmPC-PLC [1]; inhibitor 4 uM, LmPC-PLC 500 nM, 4-NPPC 1 mM, 20 mM MES pH 6.5, 150 mM NaCl, replicate 2 of N=3
  Activity of LmPC-PLC towards 4-NPPC (slope): 0.0005039 abs/min
LmPC-PLC [1]; inhibitor 4 uM, LmPC-PLC 500 nM, 4-NPPC 1 mM, 20 mM MES pH 6.5, 150 mM NaCl, replicate 3 of N=3
  Activity of LmPC-PLC towards 4-NPPC (slope): 0.0004264 abs/min
LmPC-PLC [1]; inhibitor 8 uM, LmPC-PLC 500 nM, 4-NPPC 1 mM, 20 mM MES pH 6.5, 150 mM NaCl, replicate 1 of N=3
  Activity of LmPC-PLC towards 4-NPPC (slope): 0.0004334 abs/min
LmPC-PLC [1]; inhibitor 8 uM, LmPC-PLC 500 nM, 4-NPPC 1 mM, 20 mM MES pH 6.5, 150 mM NaCl, replicate 2 of N=3
  Activity of LmPC-PLC towards 4-NPPC (slope): 0.0004696 abs/min
LmPC-PLC [1]; inhibitor 8 uM, LmPC-PLC 500 nM, 4-NPPC 1 mM, 20 mM MES pH 6.5, 150 mM NaCl, replicate 3 of N=3
  Activity of LmPC-PLC towards 4-NPPC (slope): 0.0004182 abs/min
LmPC-PLC [1]; inhibitor 16 uM, LmPC-PLC 500 nM, 4-NPPC 1 mM, 20 mM MES pH 6.5, 150 mM NaCl, replicate 1 of N=3
  Activity of LmPC-PLC towards 4-NPPC (slope): 0.0003725 abs/min
LmPC-PLC [1]; inhibitor 16 uM, LmPC-PLC 500 nM, 4-NPPC 1 mM, 20 mM MES pH 6.5, 150 mM NaCl, replicate 2 of N=3
  Activity of LmPC-PLC towards 4-NPPC (slope): 0.0004155 abs/min
LmPC-PLC [1]; inhibitor 16 uM, LmPC-PLC 500 nM, 4-NPPC 1 mM, 20 mM MES pH 6.5, 150 mM NaCl, replicate 3 of N=3
  Activity of LmPC-PLC towards 4-NPPC (slope): 0.0003534 abs/min
LmPC-PLC [1]; inhibitor 31 uM, LmPC-PLC 500 nM, 4-NPPC 1 mM, 20 mM MES pH 6.5, 150 mM NaCl, replicate 1 of N=3
  Activity of LmPC-PLC towards 4-NPPC (slope): 0.0002559 abs/min
LmPC-PLC [1]; inhibitor 31 uM, LmPC-PLC 500 nM, 4-NPPC 1 mM, 20 mM MES pH 6.5, 150 mM NaCl, replicate 2 of N=3
  Activity of LmPC-PLC towards 4-NPPC (slope): 0.0003429 abs/min
LmPC-PLC [1]; inhibitor 31 uM, LmPC-PLC 500 nM, 4-NPPC 1 mM, 20 mM MES pH 6.5, 150 mM NaCl, replicate 3 of N=3
  Activity of LmPC-PLC towards 4-NPPC (slope): 0.0003443 abs/min

## O=C(O)CCP(CCC(=O)O)CCC(=O)O [TCEP]
LmPC-PLC [1]; 1 mM TCEP, Zn 500 uM, LmPC-PLC 500 nM, 4-NPPC 1 mM, replicate 1
  Activity of LmPC-PLC, 4-NPPC as substrate (slope): 6.624e-5
LmPC-PLC [1]; 1 mM TCEP, Zn 500 uM, LmPC-PLC 500 nM, 4-NPPC 1 mM, replicate 2
  Activity of LmPC-PLC, 4-NPPC as substrate (slope): 6.51e-5
LmPC-PLC [1]; 1 mM TCEP, Zn 500 uM, LmPC-PLC 500 nM, 4-NPPC 1 mM, replicate 3
  Activity of LmPC-PLC, 4-NPPC as substrate (slope): 6.545e-5
LmPC-PLC [1]; 1 mM TCEP, Zn 5000 uM, LmPC-PLC 500 nM, 4-NPPC 1 mM, replicate 1
  Activity of LmPC-PLC, 4-NPPC as substrate (slope): 0.0001618
LmPC-PLC [1]; 1 mM TCEP, Zn 5000 uM, LmPC-PLC 500 nM, 4-NPPC 1 mM, replicate 2
  Activity of LmPC-PLC, 4-NPPC as substrate (slope): 0.0001898
LmPC-PLC [1]; 1 mM TCEP, Zn 5000 uM, LmPC-PLC 500 nM, 4-NPPC 1 mM, replicate 3
  Activity of LmPC-PLC, 4-NPPC as substrate (slope): 0.0002041
LmPC-PLC [1]; 5 mM TCEP, Zn 500 uM, LmPC-PLC 500 nM, 4-NPPC 1 mM, replicate 1, value 0 = no slope could be determined
  Activity of LmPC-PLC, 4-NPPC as substrate (slope): 0.00000
LmPC-PLC [1]; 5 mM TCEP, Zn 500 uM, LmPC-PLC 500 nM, 4-NPPC 1 mM, replicate 2, value 0 = no slope could be determined
  Activity of LmPC-PLC, 4-NPPC as substrate (slope): 0.00000
LmPC-PLC [1]; 5 mM TCEP, Zn 500 uM, LmPC-PLC 500 nM, 4-NPPC 1 mM, replicate 3, value 0 = no slope could be determined
  Activity of LmPC-PLC, 4-NPPC as substrate (slope): 0.00000
LmPC-PLC [1]; 5 mM TCEP, Zn 5000 uM, LmPC-PLC 500 nM, 4-NPPC 1 mM, replicate 1, value 0 = no slope could be determined
  Activity of LmPC-PLC, 4-NPPC as substrate (slope): 0.00000
LmPC-PLC [1]; 5 mM TCEP, Zn 5000 uM, LmPC-PLC 500 nM, 4-NPPC 1 mM, replicate 2, value 0 = no slope could be determined
  Activity of LmPC-PLC, 4-NPPC as substrate (slope): 0.00000
LmPC-PLC [1]; 5 mM TCEP, Zn 5000 uM, LmPC-PLC 500 nM, 4-NPPC 1 mM, replicate 3, value 0 = no slope could be determined
  Activity of LmPC-PLC, 4-NPPC as substrate (slope): 0.00000
LmPC-PLC [1]; 20 mM TCEP, Zn 500 uM, LmPC-PLC 500 nM, 4-NPPC 1 mM, replicate 1, value 0 = no slope could be determined
  Activity of LmPC-PLC, 4-NPPC as substrate (slope): 0.00000
LmPC-PLC [1]; 20 mM TCEP, Zn 500 uM, LmPC-PLC 500 nM, 4-NPPC 1 mM, replicate 2, value 0 = no slope could be determined
  Activity of LmPC-PLC, 4-NPPC as substrate (slope): 0.00000
LmPC-PLC [1]; 20 mM TCEP, Zn 500 uM, LmPC-PLC 500 nM, 4-NPPC 1 mM, replicate 3, value 0 = no slope could be determined
  Activity of LmPC-PLC, 4-NPPC as substrate (slope): 0.00000
LmPC-PLC [1]; 20 mM TCEP, Zn 5000 uM, LmPC-PLC 500 nM, 4-NPPC 1 mM, replicate 1, value 0 = no slope could be determined
  Activity of LmPC-PLC, 4-NPPC as substrate (slope): 0.00000
LmPC-PLC [1]; 20 mM TCEP, Zn 5000 uM, LmPC-PLC 500 nM, 4-NPPC 1 mM, replicate 2, value 0 = no slope could be determined
  Activity of LmPC-PLC, 4-NPPC as substrate (slope): 0.00000
LmPC-PLC [1]; 20 mM TCEP, Zn 5000 uM, LmPC-PLC 500 nM, 4-NPPC 1 mM, replicate 3, value 0 = no slope could be determined
  Activity of LmPC-PLC, 4-NPPC as substrate (slope): 0.00000

## CC[C@H](C)[C@H](NC(=O)[C@H](CC(=O)O)NC(=O)[C@H](Cc1c[nH]cn1)NC(=O)[C@@H]1CCCN1C(=O)[C@H](C)NC(=O)[C@H](C)NC(=O)[C@@H]1CCCN1C(=O)[C@@H](NC(=O)[C@H](CCC(N)=O)NC(=O)[C@H](CC(C)C)NC(=O)[C@H](Cc1ccc(O)cc1)NC(=O)[C@H](CCC(=O)O)NC(=O)[C@H](CC(=O)O)NC(=O)[C@H](CS)NC(=O)[C@H](CS)NC(=O)[C@H](C)NC(=O)[C@@H](N)CC(N)=O)[C@@H](C)O)C(=O)N[C@@H](CC(=O)O)C(=O)N[C@@H](CO)C(=O)N[C@@H](CCCCN)C(=O)N[C@@H](CC(C)C)C(=O)N1CCC[C@H]1C(=O)N[C@@H](Cc1c[nH]cn1)C(=O)N[C@@H](CCCCN)C(=O)N[C@@H](CC(C)C)C(=O)N[C@@H](CO)C(=O)O [NS-26]
LmPC-PLC [2]; Fig. 4f, peptide 10 uM, PC-PLC 50 nM
  relative activity on POPC (compared to uninhibited activity), Lm: 0.3051
LmPC-PLC [2]; Fig. 4h, peptide 100 uM as printed in the head (legend and method: 10 μM), enzyme 50 nM
  relative activity of LmPC-PLC WT on POPC (compared to uninhibited activity): 0.2837
LmPC-PLC [1]; Fig. 4e, peptide 100uM, PC-PLC 500 nM, 4-NPPC 1 mM, 20 mM MES pH 6.5, 150 mM NaCl, 500 μM ZnSO4, 37 °C, replicate 1
  relative activity on 4-NPPC (compared to uninhibited activity), Lm: 0.3179
LmPC-PLC [1]; as E100, replicate 2
  relative activity of LmPC-PLC WT on 4-NPPC (compared to uninhibited activity): 0.2706
LmPC-PLC [1]; as E100, replicate 3
  relative activity of LmPC-PLC WT on 4-NPPC (compared to uninhibited activity): 0.2574
LmPC-PLC [1]; peptide 100 uM, enzyme 500 nM, 4-NPPC 1 mM, 20 mM MES pH 6.5, 150 mM NaCl, 500 μM ZnSO4, 37 °C, replicate 1
  relative activity of LmPC-PLC WT on 4-NPPC (compared to uninhibited activity): 0.2356
LmPC-PLC [1]; IC50, 95% CI, as IC50, 95% CI from the fit
  IC50: 4.9 to 33.9 µM
LmPC-PLC [1]; IC50, LmPC-PLC 500 nM, 4-NPPC 1 mM, 20 mM MES pH 6.5, 150 mM NaCl, 500 μM ZnSO4, 37 °C, four-parameter logistic fit, n = 3
  IC50: 9.4 µM

## [Zn] [Zn]
LmPC-PLC [1]; Zn 500 uM, 0 mM TCEP, LmPC-PLC 500 nM, 4-NPPC 1 mM, replicate 1
  Activity of LmPC-PLC, 4-NPPC as substrate (slope): 0.0003721
LmPC-PLC [1]; Zn 500 uM, 0 mM TCEP, LmPC-PLC 500 nM, 4-NPPC 1 mM, replicate 2
  Activity of LmPC-PLC, 4-NPPC as substrate (slope): 0.0004616
LmPC-PLC [1]; Zn 500 uM, 0 mM TCEP, LmPC-PLC 500 nM, 4-NPPC 1 mM, replicate 3
  Activity of LmPC-PLC, 4-NPPC as substrate (slope): 0.0006377
LmPC-PLC [1]; Zn 5000 uM, 0 mM TCEP, LmPC-PLC 500 nM, 4-NPPC 1 mM, replicate 1
  Activity of LmPC-PLC, 4-NPPC as substrate (slope): 0.0007074
LmPC-PLC [1]; Zn 5000 uM, 0 mM TCEP, LmPC-PLC 500 nM, 4-NPPC 1 mM, replicate 2
  Activity of LmPC-PLC, 4-NPPC as substrate (slope): 0.000691
LmPC-PLC [1]; Zn 5000 uM, 0 mM TCEP, LmPC-PLC 500 nM, 4-NPPC 1 mM, replicate 3
  Activity of LmPC-PLC, 4-NPPC as substrate (slope): 0.0004664

## broad-range phospholipase C from Listeria monocytogenes (LmPC-PLC), wild type, mature form (from UniProt P33378 52-289) (enzyme)
[3]
  stoichiometry N: 2
